Publication PMC10353187, “Discovery of a new potent oxindole multi-kinase inhibitor among a series of designed 3-alkenyl-oxindoles with ancillary carbonic anhydrase inhibitory activity as antiproliferative agents” (BMC Chemistry, 2023)

Columns and labels:
[1] = target: hCA XII (Homo sapiens, UniProt O43570); assay: Stopped flow CO2 hydrase assay; conditions: for Selectivity ratio I/XII: Ki hCA I / Ki hCA XII; for Selectivity ratio II/XII: Ki hCA II / Ki hCA XII
[2] = target: hCA IX (Homo sapiens, UniProt Q16790); assay: Stopped flow CO2 hydrase assay; conditions: for Selectivity ratio I/IX: Ki hCA I / Ki hCA IX; for Selectivity ratio II/IX: Ki hCA II / Ki hCA IX
[3] = target: hCA I (Homo sapiens, UniProt P00915); assay: Stopped flow CO2 hydrase assay
hCA I, sequence (P00915 whole entry): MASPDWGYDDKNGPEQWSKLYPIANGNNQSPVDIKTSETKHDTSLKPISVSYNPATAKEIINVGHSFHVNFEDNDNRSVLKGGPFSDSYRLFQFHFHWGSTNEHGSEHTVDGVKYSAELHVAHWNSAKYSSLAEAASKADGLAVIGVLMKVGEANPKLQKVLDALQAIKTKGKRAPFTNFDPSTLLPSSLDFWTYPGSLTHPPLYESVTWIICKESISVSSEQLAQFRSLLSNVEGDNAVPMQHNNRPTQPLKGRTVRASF

[4] = target: hCA II (Homo sapiens, UniProt P00918); assay: Stopped flow CO2 hydrase assay
[5] = test system: UO-31; assay: NCI-60 single-dose antiproliferative assay (SRB); type: cell-based, human; conditions: Homo sapiens, UO-31, 10 μM single dose; UO-31, Renal cancer; read-out: Cell Growth inhibition Percent
Experimental: (§1) From the newly synthesized compounds, eleven compounds (4c, 4d, 5, 9a, 9b, 11a, 11b, 13b, 13c, 15b, and 15c) were selected by the National Cancer Institute (NCI) Developmental Therapeutics Program (DTP), Bethesda, Maryland, USA for the in vitro anti-proliferative activity evaluation. The selected compounds were examined at 10 μM dose against the NCI 60-cell line panel. This panel consists of nine cell line groups of leukemia, non-small cell lung carcinoma (NSCLC), melanoma, colon, CNS, ovarian, renal, prostate, and breast cancers. The results are reported as mean-graph of the percent growth relative to control and presented as percentage growth inhibition (GI%), furthermore, mean GI% of each compound over all panel cell lines was calculated (Table 1; Additional file 1; S3: In vitro biological activity).
(§2) From the newly synthesized compounds, eleven compounds were selected by the National Cancer Institute (NCI) Developmental Therapeutics Program (DTP), Bethesda, Maryland, USA for the in vitro anti-proliferative activity evaluation (For further details see supplementary materials).
(§3) NCI In-vitro Cancer Screening is a two-phase procedure that starts with the assessment of all compounds against the sixty NCI cell line panel depicting leukemia, NSCLC, CNS cancer, melanoma, prostate cancer, breast cancer, renal cancer, colon cancer and ovarian cancer cell lines at a single point of 10μM. The output from the single-dose screen is reportable as a mean graph.
(§4) The human tumor cell lines of the cancer screening panel were grown in RPMI 1640 medium containing 5% fetal bovine serum and 2 mM L-glutamine. For a typical screening experiment, cells were inoculated into 96 well microtiter plates in […] at plating densities ranging from 5000 to 40,000 cells/well depending on the doubling time of individual cell lines. After cell inoculation, the microtiter plates were incubated at 37 °C, 5% CO2, 95% air and 100% relative humidity for 24 h prior to addition of experimental drugs. After 24 h, two plates of each cell line were fixed in situ with trichloroacetic acid (TCA), to represent a measurement of the cell population for each cell line at the time of drug addition (Tz). Experimental drugs were solubilized in dimethyl sulfoxide at 400-fold the desired final maximum test concentration and stored frozen prior to use. At the time of drug addition, an aliquot of frozen concentrate was thawed and diluted to twice the desired final maximum test concentration with complete medium containing 50 µg/ml gentamicin. Aliquot of 100 µl of the drug dilution was added to the appropriate microtiter wells already containing 100 µl of medium, resulting in the required final drug concentration (10 µM). Triplicate wells were prepared for each individual dose. Following drug addition, the plates were incubated for an additional 48 h at 37 °C, 5% CO2, 95% air, and 100% relative humidity. For adherent cells, the assay was terminated by the addition of cold TCA. Cells were fixed in situ by the gentle addition of 50 µl of cold 50% (w/v) TCA (final concentration, 10% TCA) and incubated for 60 min at 4 °C. The supernatant was discarded, and the plates were washed five times with tap water and air dried. Sulforhodamine B (SRB) solution (100 µl) at 0.4% (w/v) in 1% acetic acid was added to each well, and plates were incubated for 10 min at room temperature. After staining, unbound dye was removed by washing five times with 1% acetic acid and the plates were air dried. Bound stain was subsequently solubilized with 10 mM trizma base, and the absorbance was read on an automated plate reader at a wavelength of 515 nm. For suspension cells, the methodology was the same except that the assay was terminated by fixing settled cells at the bottom of the wells by gently adding 50 µl of 80% TCA (final concentration, 16% TCA). […]

[6] = test system: SN12C; assay: NCI-60 single-dose antiproliferative assay (SRB); type: cell-based; conditions: Homo sapiens, 10 μM single dose, Renal cancer, read-out: Cell Growth inhibition Percent
Experimental: as §1, §2, §3, §4

[7] = test system: NCI-H23; assay: NCI-60 single-dose antiproliferative assay (SRB); type: cell-based; conditions: Homo sapiens; 10 μM single dose; NCI-H23, Non-small cell lung cancer; read-out: Cell Growth inhibition Percent
Experimental: as §1, §2, §3, §4

[8] = test system: HOP-62; assay: NCI-60 single-dose antiproliferative assay (SRB); type: cell-based; conditions: Homo sapiens; 10 μM single dose; HOP-62, Non-small cell lung cancer; read-out: Cell Growth inhibition Percent
Experimental: as §1, §2, §3, §4

[9] = test system: SK-MEL-5; assay: NCI-60 single-dose antiproliferative assay (SRB); type: cell-based; conditions: Homo sapiens; 10 μM single dose; SK-MEL-5, Melanoma; read-out: Cell Growth inhibition Percent
Experimental: as §1, §2, §3, §4

[10] = test system: NCI-H226; assay: NCI-60 single-dose antiproliferative assay (SRB); type: cell-based; conditions: Homo sapiens; 10 μM single dose; NCI-H226, Non-small cell lung cancer; read-out: Cell Growth inhibition Percent
Experimental: as §1, §2, §3, §4

[11] = test system: EKVX; assay: NCI-60 single-dose antiproliferative assay (SRB); type: cell-based; conditions: Homo sapiens, 10 μM single dose, Non-small cell lung cancer, read-out: Cell Growth inhibition Percent
Experimental: as §1, §2, §3, §4

[12] = test system: KM12; assay: NCI-60 single-dose antiproliferative assay (SRB); type: cell-based; conditions: Homo sapiens; 10 μM single dose; KM12, Colon cancer; read-out: Cell Growth inhibition Percent
Experimental: as §1, §2, §3, §4

[13] = test system: PC-3; assay: NCI-60 single-dose antiproliferative assay (SRB); type: cell-based; conditions: Homo sapiens; 10 μM single dose; PC-3, Prostate cancer; read-out: Cell Growth inhibition Percent
Experimental: as §1, §2, §3, §4

[14] = test system: T-47D; assay: NCI-60 single-dose antiproliferative assay (SRB); type: cell-based; conditions: Homo sapiens, T47D, 10 μM single dose, Breast cancer, read-out: Cell Growth inhibition Percent
Experimental: as §1, §2, §3, §4

[15] = test system: HOP-92; assay: NCI-60 single-dose antiproliferative assay (SRB); type: cell-based; conditions: Homo sapiens; 10 μM single dose; HOP-92, Non-small cell lung cancer; read-out: Cell Growth inhibition Percent
Experimental: as §1, §2, §3, §4

[16] = test system: SR; assay: NCI-60 single-dose antiproliferative assay (SRB); type: cell-based; conditions: Homo sapiens, 10 μM single dose, Leukemia, read-out: Cell Growth inhibition Percent
Experimental: as §1, §2, §3, §4

[17] = test system: K-562; assay: NCI-60 single-dose antiproliferative assay (SRB); type: cell-based; conditions: Homo sapiens, K562; 10 μM single dose; K-562, Leukemia; read-out: Cell Growth inhibition Percent
Experimental: as §1, §2, §3, §4

[18] = test system: NCI-H522; assay: NCI-60 single-dose antiproliferative assay (SRB); type: cell-based; conditions: Homo sapiens; 10 μM single dose; NCI-H522, Non-small cell lung cancer; read-out: Cell Growth inhibition Percent
Experimental: as §1, §2, §3, §4

[19] = test system: MCF7; assay: NCI-60 single-dose antiproliferative assay (SRB); type: cell-based; conditions: Homo sapiens; 10 μM single dose; MCF7, Breast cancer; read-out: Cell Growth inhibition Percent
Experimental: as §1, §2, §3, §4

[20] = test system: HCT-15; assay: NCI-60 single-dose antiproliferative assay (SRB); type: cell-based; conditions: Homo sapiens; 10 μM single dose; HCT-15, Colon cancer; read-out: Cell Growth inhibition Percent
Experimental: as §1, §2, §3, §4

[21] = test system: HCT-116; assay: NCI-60 single-dose antiproliferative assay (SRB); type: cell-based; conditions: Homo sapiens; 10 μM single dose; HCT-116, Colon cancer; read-out: Cell Growth inhibition Percent
Experimental: as §1, §2, §3, §4

[22] = test system: CAKI-1; assay: NCI-60 single-dose antiproliferative assay (SRB); type: cell-based; conditions: Homo sapiens; 10 μM single dose; CAKI-1, Renal cancer; read-out: Cell Growth inhibition Percent
Experimental: as §1, §2, §3, §4

[23] = test system: SNB-75; assay: NCI-60 single-dose antiproliferative assay (SRB); type: cell-based; conditions: Homo sapiens; 10 μM single dose; SNB-75, CNS cancer; read-out: Cell Growth inhibition Percent
Experimental: as §1, §2, §3, §4

[24] = Fig. 2; read-out: cytotoxicity average IC50; cited from earlier work

hCA XII, sequence (O43570 25-354): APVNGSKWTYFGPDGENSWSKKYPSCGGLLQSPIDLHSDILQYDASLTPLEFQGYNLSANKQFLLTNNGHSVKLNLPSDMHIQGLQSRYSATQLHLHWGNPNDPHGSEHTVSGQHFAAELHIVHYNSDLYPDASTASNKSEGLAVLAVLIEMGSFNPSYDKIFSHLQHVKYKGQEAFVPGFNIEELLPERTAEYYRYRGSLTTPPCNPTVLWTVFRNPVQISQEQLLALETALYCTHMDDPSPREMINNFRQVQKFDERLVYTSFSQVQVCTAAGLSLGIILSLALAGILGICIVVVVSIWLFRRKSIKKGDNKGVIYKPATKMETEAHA

SMILES	Ki [1] [µM]	melting point [°C]	Ki [2] [µM]	Ki [3] [µM]	Ki [4] [µM]	Selectivity ratio I/XII [1]	Selectivity ratio II/XII [1]	Selectivity ratio I/IX [2]	Selectivity ratio II/IX [2]	also measured
O=C1Nc2ccccc2C1=CNC1=NS(=O)(=O)c2ccccc21 [Compound 4a, 3-{[(1,1-Dioxidobenzo[d]isothiazol-3-yl)amino]methylene}indolin-2-one]	> 10	195 to 199	> 10	> 10	8.95	–	–	–	–	–
O=C1Nc2ccccc2C1=CNc1ccc(S(=O)(=O)Nc2ncccn2)cc1 [Compound 4b, 4-{[(2-Oxoindolin-3-ylidene)methyl]amino}-N-(pyrimidin-2-yl)benzenesulfonamide]	> 10	238 to 240	> 10	> 10	> 10	–	–	–	–	–
NS(=O)(=O)OC=C1C(=O)Nc2ccccc21 [Compound 7, (2-Oxoindolin-3-ylidene)methyl sulfamate]	0.133	165 to 170	0.941	6.24	5.58	46.89	41.97	6.63	5.93	–
O=C1Nc2ccccc2C1=CNc1ccc(C(=O)Nc2nccs2)cc1 [Compound 9c, 4-{[(2-Oxoindolin-3-ylidene)methyl]amino}-N-(thiazol-2-yl)benzamide]	> 10	> 300	> 10	> 10	> 10	–	–	–	–	–
O=C1Nc2ccccc2C1=CNc1ccc(CNc2nccs2)cc1 [Compound 11c, 3-{[(4-((Thiazol-2-ylamino)methyl)phenyl)amino]methylene}indolin-2-one]	> 10	150 to 153	> 10	> 10	> 10	–	–	–	–	–
NS(=O)(=O)c1ccc(NC=CC(=O)c2ccc(NC=C3C(=O)Nc4ccccc43)cc2)cc1 [Compound 13a, 4-{[-3-Oxo-3-(4-{[(-2-oxoindolin-3-ylidene)methyl]amino}phenyl)prop-1-en-1-yl]amino}benzenesulfonamide]	0.183	275 to 278	0.0913	0.483	0.307	2.64	1.68	5.29	3.36	–
NS(=O)(=O)c1ccc(NC(=O)Nc2ccc(NC=C3C(=O)Nc4ccccc43)cc2)cc1 [Compound 15a, 4-{3-[4-({[2-Oxoindolin-3-ylidene]methyl}amino)phenyl]ureido}benzenesulfonamide]	0.175	–	0.863	0.845	0.762	4.83	4.36	0.98	0.88	–
O=C(Nc1ccc(NC=C2C(=O)Nc3ccccc32)cc1)Nc1ccc(S(=O)(=O)Nc2ncccn2)cc1 [Compound 15b, 4-{3-[4-({[2-Oxoindolin-3-ylidene]methyl}amino)phenyl]ureido}-N-(pyrimidin-2-yl)benzenesulfonamide]	> 10	> 300	> 10	> 10	> 10	–	–	–	–	inhibition at 10 µM [5]: 18.3%; inhibition at 10 µM [6]: 1.23%; inhibition at 10 µM [7]: 72.8%; inhibition at 10 µM [8]: 1.01%; inhibition at 10 µM [9]: 0.02%; inhibition at 10 µM [10]: 3.3%; inhibition at 10 µM [11]: 1.92%; inhibition at 10 µM [12]: 49.1%; inhibition at 10 µM [13]: 5.91%; inhibition at 10 µM [14]: 7.81%; inhibition at 10 µM [15]: 5.79%; inhibition at 10 µM [16]: 3.55%; inhibition at 10 µM [17]: 2.05%; inhibition at 10 µM [18]: 4.97%; inhibition at 10 µM [19]: 15%; inhibition at 10 µM [20]: 2.59%; inhibition at 10 µM [21]: 7.3%; inhibition at 10 µM [22]: 5.21%; inhibition at 10 µM [23]: 1.02%
O=C1Nc2ccc(Cl)cc2/C1=N/Nc1nc(-c2ccccc2)cs1 [XIV]	–	–	–	–	–	–	–	–	–	IC50 [24]: 4.66 µM
